For this assay, the target named is Metabotropic glutamate receptor 4 (Rattus norvegicus) (UniProt P31423). Nature of the assay: PubChem AID 623906. The conditions noted are these: rat mGlu4 cells, thallium flux, glutamate CRC fold shift, at 10 µM, stronger effect = higher value.

The values that follow come from PubChem BioAssay AID623906 (Vanderbilt Specialized Chemistry Center, 2012).

Each structure is given as a SMILES string.

Metabotropic glutamate receptor 4 (Rattus norvegicus), sequence (P31423 whole entry, looked up): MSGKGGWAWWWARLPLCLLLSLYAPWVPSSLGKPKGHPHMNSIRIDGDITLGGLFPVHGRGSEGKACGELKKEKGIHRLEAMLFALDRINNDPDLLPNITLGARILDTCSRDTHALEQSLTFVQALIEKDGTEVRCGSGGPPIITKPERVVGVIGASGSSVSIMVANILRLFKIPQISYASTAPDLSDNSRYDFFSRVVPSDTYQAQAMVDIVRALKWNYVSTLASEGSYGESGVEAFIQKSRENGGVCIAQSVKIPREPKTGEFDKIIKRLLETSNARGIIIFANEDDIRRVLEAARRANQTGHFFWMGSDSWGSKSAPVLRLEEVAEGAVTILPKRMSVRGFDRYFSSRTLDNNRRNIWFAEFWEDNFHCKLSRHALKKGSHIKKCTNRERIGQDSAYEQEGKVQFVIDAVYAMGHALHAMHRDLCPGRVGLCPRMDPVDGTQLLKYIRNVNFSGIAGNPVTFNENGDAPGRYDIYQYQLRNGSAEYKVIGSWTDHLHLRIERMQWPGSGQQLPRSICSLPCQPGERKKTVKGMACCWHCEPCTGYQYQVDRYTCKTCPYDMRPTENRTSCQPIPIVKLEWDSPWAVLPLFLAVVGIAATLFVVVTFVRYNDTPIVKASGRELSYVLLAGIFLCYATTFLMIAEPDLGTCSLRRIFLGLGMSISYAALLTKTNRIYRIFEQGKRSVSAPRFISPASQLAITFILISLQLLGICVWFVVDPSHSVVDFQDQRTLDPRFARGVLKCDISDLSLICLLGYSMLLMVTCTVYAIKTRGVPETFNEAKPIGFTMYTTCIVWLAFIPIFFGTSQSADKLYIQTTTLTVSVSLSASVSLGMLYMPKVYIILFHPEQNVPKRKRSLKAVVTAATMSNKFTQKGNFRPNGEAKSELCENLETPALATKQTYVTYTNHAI

For the molecule `O=C(Nc1cccc(Cl)c1)c1ccccn1`, the fold shift was 16.5. Besides, for the setting “glutamate max with compound”, the glutamate max response was 96.9%.
